The text below walks through data of patent publication US7482348B2, “Piperazinyl substituted cyclohexane-1,4-diamines” (Janssen Pharmaceutica N.V., priority 2005, dated 2009).

Test [1] concerns the target T1, α1a-AR (Homo sapiens, UniProt P35348).
T1 construct: expressed in transfected cells; host or cells: COS-7 (African green monkey kidney) membranes
T1 sequence (P35348 1-455 isoform P35348-4): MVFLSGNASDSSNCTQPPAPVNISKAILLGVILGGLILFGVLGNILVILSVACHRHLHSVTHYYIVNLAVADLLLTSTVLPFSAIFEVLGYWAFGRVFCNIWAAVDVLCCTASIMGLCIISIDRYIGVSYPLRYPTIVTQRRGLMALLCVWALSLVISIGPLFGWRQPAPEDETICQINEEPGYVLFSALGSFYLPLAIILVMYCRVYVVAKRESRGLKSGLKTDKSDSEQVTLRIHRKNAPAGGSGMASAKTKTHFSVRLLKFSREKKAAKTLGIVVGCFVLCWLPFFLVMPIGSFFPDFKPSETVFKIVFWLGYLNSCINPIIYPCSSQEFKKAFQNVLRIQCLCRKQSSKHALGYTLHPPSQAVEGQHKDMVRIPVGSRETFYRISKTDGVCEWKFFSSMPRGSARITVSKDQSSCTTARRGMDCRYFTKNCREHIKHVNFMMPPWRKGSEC
Nature of the test: α1-Adrenergic receptor radio-ligand (125I-HEAT) binding assay, α1a subtype. As to conditions: membranes of transfected COS-7 cells, 125I-HEAT 50 pM. As for the experimental part: (§1) α1-Adrenergic Receptor Binding Assay
(§2) Preparation of COS Cell Membranes
(§3) Membranes were prepared from COS-7 cells (African Green monkey kidney SV40-transformed cells) that had been transfected with one of the three α1-AR subtypes (Genbank accession number for the α1a subtype: AF013261; Genbank accession number for the α1b subtype: NM000679; Genbank accession number for the α1d subtype: NM000678) using the following method: COS cells from ten 100 mm tissue culture plates were scraped into a 5 mL volume of TE (a mixture of 50 mM Tris-HCl, 5 mM EDTA, pH 7.4). The cell suspension was disrupted with a Brinkman Polytron (at a setting of 8) for 10 sec. The disrupted cells were centrifuged at 1000×g for 10 min at 4° C. Supernatants were centrifuged at 34,500×g for 20 min at 4° C. The membrane pellets were suspended in a 2 mL volume of TNE (a mixture of 50 mM Tris-HCl, 5 mM EDTA and 150 mM NaCl at pH 7.4). An aliquot of the membrane suspension was stored at −70° C. until use. The protein concentration was determined using the BioRad “DC” protein assay kit following membrane solubilization with Triton X-100.
(§4) Radio-ligand Binding Assay
(§5) Triplicate determinations of radio-ligand binding in the presence of increasing concentrations of testing compound were made. The reagents were added to 96-well polypropylene plate wells. Each assay well contained 140 μL TNE, 25 μL ^125I-2-(β-4-hydroxyphenyl)ethylaminomethyltetralone (^125I-HEAT) (specific activity 2200 Ci/mmol, Dupont-New England Nuclear, 50 pM final), 10 μL testing compound dissolved in dimethyl sulfoxide (DMSO) (1 pM to 10 μM in half-log increments, final), and 25 μL appropriate α1-AR membrane subtype suspension in TNE (0.5 ng/μL for the α1a and α1b subtypes and 13 ng/μL for the α1d subtype). The plate was incubated at rt for 1 hr. The contents of the wells were filtered through a glass filter (type C) (GF/C) membrane Unifilter plate (Packard Instruments) using the Packard Filtermate cell harvester. The filter plates were dried in a vacuum oven for 30 min at 40° C. 25 μL Microscint 20 liquid scintillation fluid (Packard Instuments) was added to each well. The radioactive content was analyzed in the TopCount microplate scintillation counter (Packard Instruments).
(§6) The Ki values (in nM) shown in Table 1 were determined using GraphPad Prism software.

In test [2] the target is T2, α1d-AR (Homo sapiens, UniProt P25100).
T2 construct: expressed in transfected cells; host or cells: COS-7 (African green monkey kidney) membranes
T2 sequence (P25100 1-572): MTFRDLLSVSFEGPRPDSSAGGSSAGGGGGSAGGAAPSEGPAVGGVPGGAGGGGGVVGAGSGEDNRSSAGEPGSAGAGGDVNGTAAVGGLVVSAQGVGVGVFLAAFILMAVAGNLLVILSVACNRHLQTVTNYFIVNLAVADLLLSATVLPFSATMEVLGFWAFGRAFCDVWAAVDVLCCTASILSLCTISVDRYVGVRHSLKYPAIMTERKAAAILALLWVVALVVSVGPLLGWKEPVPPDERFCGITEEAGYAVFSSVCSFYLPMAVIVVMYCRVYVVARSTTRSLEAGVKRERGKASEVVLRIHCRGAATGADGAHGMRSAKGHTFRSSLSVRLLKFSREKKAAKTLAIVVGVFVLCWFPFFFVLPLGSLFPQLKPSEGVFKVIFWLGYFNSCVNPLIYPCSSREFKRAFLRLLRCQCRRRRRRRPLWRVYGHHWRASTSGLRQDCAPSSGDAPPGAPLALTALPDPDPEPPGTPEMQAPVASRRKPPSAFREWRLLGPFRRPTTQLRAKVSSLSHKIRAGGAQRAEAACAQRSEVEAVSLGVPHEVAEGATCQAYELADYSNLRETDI
Nature of the test: α1-Adrenergic receptor radio-ligand (125I-HEAT) binding assay, α1d subtype. As to conditions: membranes of transfected COS-7 cells, 125I-HEAT 50 pM. Here is the method: as §1, §2, §3, §4, §5, §6

The target in test [3] is T3, α1b-AR (Homo sapiens, UniProt P35368).
T3 construct: expressed in transfected cells; host or cells: COS-7 (African green monkey kidney) membranes
T3 sequence (P35368 1-520): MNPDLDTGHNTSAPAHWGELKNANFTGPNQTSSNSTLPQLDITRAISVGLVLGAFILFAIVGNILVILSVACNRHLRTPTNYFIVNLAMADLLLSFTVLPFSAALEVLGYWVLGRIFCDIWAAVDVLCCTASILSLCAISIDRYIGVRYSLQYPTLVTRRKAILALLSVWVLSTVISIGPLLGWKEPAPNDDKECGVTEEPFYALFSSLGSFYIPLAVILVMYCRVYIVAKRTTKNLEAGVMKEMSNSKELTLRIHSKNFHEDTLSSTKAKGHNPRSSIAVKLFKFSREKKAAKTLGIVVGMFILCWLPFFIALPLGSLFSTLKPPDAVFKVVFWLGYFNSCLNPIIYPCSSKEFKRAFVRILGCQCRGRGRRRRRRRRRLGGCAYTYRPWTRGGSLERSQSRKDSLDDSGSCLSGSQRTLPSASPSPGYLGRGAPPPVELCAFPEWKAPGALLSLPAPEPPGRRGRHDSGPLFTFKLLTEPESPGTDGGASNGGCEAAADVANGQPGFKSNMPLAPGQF
Put plainly: α1-Adrenergic receptor radio-ligand (125I-HEAT) binding assay, α1b subtype. As to conditions: membranes of transfected COS-7 cells, 125I-HEAT 50 pM. Here is the method: as §1, §2, §3, §4, §5, §6

For test [4], the system named is α1a and α1d subtypes over the α1b subtype. As to conditions: cited from earlier work.

As usually defined, the Ki is the dissociation constant of the complex between target and ligand, obtained from inhibition or displacement. A higher Ki goes with lower affinity. On to `COc1ccc(S(=O)(=O)N[C@H]2CC[C@@H](N3CCN(c4ncccc4OCC4CC4)CC3)CC2)cc1OC` [Cpd 1, N-cis-{4-[4-(3-cyclopropylmethoxy-pyridin-2-yl)-piperazin-1-yl]-cyclohexyl}-3,4-dimethoxy-benzenesulfonamide], for which the results for the Ki in test [1], in test [2] and in test [3] were 189 nM, 64 nM and 364 nM, respectively.
Take `COc1ccc(S(=O)(=O)N[C@H]2CC[C@@H](N3CCN(c4ncccc4OC(C)C)CC3)CC2)cc1OC` [Cpd 3, N-cis-{4-[4-(3-isopropoxy-pyridin-2-yl)-piperazin-1-yl]-cyclohexyl}-3,4-dimethoxy-benzenesulfonamide]: the Ki in test [1] was 61 nM; in test [2] it was 19 nM; in test [3], 112 nM.
The corresponding values for `COc1ccc(Cl)cc1S(=O)(=O)N[C@H]1CC[C@@H](N2CCN(c3ncccc3OC(C)C)CC2)CC1` [Cpd 5, 5-chloro-N-cis-{4-[4-(3-isopropoxy-pyridin-2-yl)-piperazin-1-yl]-cyclohexyl}-2-methoxy-benzenesulfonamide] are 10.7 nM, 12.4 nM and 399 nM.
Taken in the same sequence, the figures for `CC(C)Oc1cccnc1N1CCN([C@H]2CC[C@@H](NS(=O)(=O)c3cc(Cl)ccc3F)CC2)CC1` [Cpd 7, 5-chloro-2-fluoro-N-cis-{4-[4-(3-isopropoxy-pyridin-2-yl)-piperazin-1-yl]-cyclohexyl}-benzenesulfonamide] were 44.7 nM, 15.3 nM and 1860 nM.
Taken in the same sequence, the figures for `COc1ccc(Cl)cc1S(=O)(=O)N[C@H]1CC[C@@H](N2CCN(c3ncccc3OCC3CC3)CC2)CC1` [Cpd 9, 5-chloro-N-cis-{4-[4-(3-cyclopropylmethoxy-pyridin-2-yl)-piperazin-1-yl]-cyclohexyl}-2-methoxy-benzenesulfonamide] were 18.7 nM, 48.3 nM and 601 nM.
In the case of `O=S(=O)(N[C@H]1CC[C@@H](N2CCN(c3ncccc3OCC3CC3)CC2)CC1)c1cc(Cl)ccc1F` [Cpd 11, 5-chloro-N-cis-{4-[4-(3-cyclopropylmethoxy-pyridin-2-yl)-piperazin-1-yl]-cyclohexyl}-2-fluoro-benzenesulfonamide], the Ki was 35.7 nM in test [1], 43.6 nM in test [2] and 952 nM in test [3].
As to `CCOc1ccccc1OCCN[C@H](C)Cc1ccc(OC)c(S(N)(=O)=O)c1` [Tamsulosin], the “selectivity for the α1a and α1d subtypes over the α1b subtype” value in test [4] is given as “about 15 fold”.
